This is an account of results in US7244756B2, “Benzimidazol-2-one derivatives and their use” (Poseidon Pharmaceuticals A/S, priority 2002, dated 2007).

Series [1] can be described thus: Pharmacokinetic parameters in rats (i.v. and p.o. dosing, plasma LC-MS/MS). It counts as in vivo, male Wistar rats. The conditions noted are these: rat; for half-life / Cmax / Tmax / bioavailability / Vd: male, Wistar, plasma. The procedure:
In this example the pharmacokinetic parameters of Compound 1 of the invention are compared to those of a close analogue of the prior art, i.e. 1,3-dihydro-1-[2-hydroxy-5-(trifluoromethyl)phenyl]-5-(trifluoromethyl)-2H-Benzimidazol-2-one (i.e. NS1619 described WO 01/54711) herein designated the Reference Compound.
The blood samples were centrifuged at 1.300 g at 4° C. for 25 minutes and the resulting plasma samples were stored at <−15° C. pending analysis.
The compounds were dosed as clear solutions in phosphate buffer/Tween 80 (90:10) in a concentration of 3 mg/ml.
Aliquots of samples, calibrants and QC's (100 μl) were pipetted into 1.5 ml eppendorf tubes. To each tube (except matrix blank) was added 300 μl acetonitrile with internal standards. Matrix blank was added 300 μl acetonitrile without internal standard.
The tubes were shaken on a whirlimixer and then centrifuged for 25 minutes at 16.000 g at 5° C. to precipitate proteins.
An aliquot (200 μl) of the supernatant was transferred to another 1.5 ml eppendorf tube and evaporated to dryness under a gentle stream of nitrogen at 40° C. Then the samples were reconstituted in […] (initial composition).
Incorporating the data from the rat plasma analyses, the pharmacokinetic parameters were calculated using WinNonLin Professional Edition version 2.0.

Series [2] is described as follows: Stability in solution (water, 0.1M HCl, 0.1M NaOH, 60° C., HPLC). It counts as physicochemical. Here is the method: In this example the stability of Compound 1 of the invention are compared to those of a close analogue of the prior art, i.e. 1,3-dihydro-1-[2-hydroxy-5-(trifluoromethyl)phenyl]-5-(trifluoromethyl)-2H-Benzimidazol-2-one (i.e. NS1619 described in WO 01/54771) herein designated the Reference Compound.
The stability is determined in neutral (H2O), in basic (0.1M NaOH) and in acidic solution (0.1M HCl).
50 ml of water was added to 27 mg of the reference compound. The compound was only partly dissolved. The suspension was stored at 60° C. and after 24 hours 25 ml of methanol was added in order to completely dissolve reference compound. The solution was stored for further 4 hours and then analysed by HPLC (t=28 hours).
50 ml of 0.1M hydrochloric acid was added to 27 mg of the reference compound. The compound was only partly dissolved. The suspension was stored at 60° C. and after 48 hours 25 ml of methanol was added in order to completely dissolve he reference compound. The solution was stored for further 4. hours and then arialysed by HPLC (t=52 hours).
50 ml of 0.1M sodium hydroxide was added to 24 mg of the reference compound. The compound was completely dissolved. The solution was stored at 60° C. and analysed by HPLC after 2 hours (t=2 hours).
50 ml of water was added to 25 mg of Compound 1. The compound was only partly dissolved. The suspension was stored at 60° C., and after 48 hours, 25 ml of acetonitrile was added in order to completely dissolve Compound 1. The solution was stored for further 24 hours and then analysed by HPLC (t=72 hours).
50 ml of 0.1M hydrochloric acid was added to 27 mg of Compound 1. The compound was only-partly dissolved. The suspension was stored at 60° C., and after 48 hours, 25 ml of acetonitrile was added in order to completely dissolve Compound 1. The solution was stored for further 24 hours and then analysed by HPLC (t=72 hours).
50 ml of 0.1M sodium hydroxide was added to 26 mg of Compound 1. The compound was completely dissolved. The solution was stored at 60° C. and analysed by HPLC after 72 hours (t=72 hours).

Series [3] addresses T1, large conductance calcium-activated potassium (BKCa) channels (Cavia porcellus, UniProt A0A286XP95).
T1 construct: sensory fibers innervating the guinea pig airways; host or cells: guinea pig airway sensory nerve fibers (native tissue)
The settings on record: guinea pig airways, via activation of BKCa channels; cited from earlier work.

Setting [4] is: iv, i.v. 3 mg/kg, time-points 5 min–5 h, read-out: T1/2 (i.v.) (converted).
Setting [5] is: po, p.o. 30 mg/kg, i.v. 3 mg/kg.
The mark [6] stands for this setting: po, p.o. 30 mg/kg, time-points 3–24 h (Ref. Cpd.), 2–24 h (Cpd. 1), read-out: T1/2 (p.o.) (converted).

Read-outs that look alike come from different tables or passages of the source.

T1 sequence (A0A286XP95 1-1133): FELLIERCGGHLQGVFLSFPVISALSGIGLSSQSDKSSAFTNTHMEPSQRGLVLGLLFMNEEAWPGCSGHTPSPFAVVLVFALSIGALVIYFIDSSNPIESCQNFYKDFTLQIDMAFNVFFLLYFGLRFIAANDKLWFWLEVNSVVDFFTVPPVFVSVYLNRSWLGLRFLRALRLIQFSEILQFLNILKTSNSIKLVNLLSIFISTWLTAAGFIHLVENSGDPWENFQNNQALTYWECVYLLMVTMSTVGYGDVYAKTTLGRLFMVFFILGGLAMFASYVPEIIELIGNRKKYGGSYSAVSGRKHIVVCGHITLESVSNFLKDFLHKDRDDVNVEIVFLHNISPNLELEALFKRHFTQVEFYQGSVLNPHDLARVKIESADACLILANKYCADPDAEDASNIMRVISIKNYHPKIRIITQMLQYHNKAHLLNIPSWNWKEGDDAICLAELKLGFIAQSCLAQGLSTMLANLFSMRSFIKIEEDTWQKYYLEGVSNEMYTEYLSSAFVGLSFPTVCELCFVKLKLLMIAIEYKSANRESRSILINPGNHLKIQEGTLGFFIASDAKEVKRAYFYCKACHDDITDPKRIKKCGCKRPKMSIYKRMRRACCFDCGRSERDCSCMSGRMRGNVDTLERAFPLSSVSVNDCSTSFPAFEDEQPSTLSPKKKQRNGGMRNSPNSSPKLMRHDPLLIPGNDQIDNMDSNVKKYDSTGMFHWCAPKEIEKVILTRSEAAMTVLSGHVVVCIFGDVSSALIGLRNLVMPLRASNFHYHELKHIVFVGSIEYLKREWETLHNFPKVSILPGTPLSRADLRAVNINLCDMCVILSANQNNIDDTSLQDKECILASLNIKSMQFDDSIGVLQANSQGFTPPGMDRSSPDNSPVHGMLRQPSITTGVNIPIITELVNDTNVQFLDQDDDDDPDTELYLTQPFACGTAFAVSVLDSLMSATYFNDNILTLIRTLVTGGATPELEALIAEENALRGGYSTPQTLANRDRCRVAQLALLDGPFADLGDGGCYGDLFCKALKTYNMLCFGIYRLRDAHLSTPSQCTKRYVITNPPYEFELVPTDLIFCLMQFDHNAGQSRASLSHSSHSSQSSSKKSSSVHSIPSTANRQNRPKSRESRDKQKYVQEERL

Usually Cmax stands for the maximum level reached in the sampled fluid or tissue. In general, Tmax refers to the time at which the peak concentration occurs. Regarding `O=c1[nH]c2cc(Cl)ccc2n1-c1cc(Cl)ccc1O` [Compound 1, 5-Chloro-1-(5-chloro-2-hydroxy-phenyl)-1,3-dihydro-benzimidazole-2-one], the half-life in series [1] (setting [4]) is 0.8 h; in series [1] (setting [6]), 3.2 h. Besides, the Cmax in series [1] (po, p.o. 30 mg/kg) amounted to 4200 ng/mL. In series [1] (po, p.o. 30 mg/kg), the Tmax was found to be 0.5 h. The bioavailability in series [1] (setting [5]) was determined as 97%. For the same compound, the Vd in series [1] is 1.9 L/kg. The “Absorption compared to the reference compound” value in series [1] (p.o.) was “faster absorption”. Also, the “Half-life after p.o. administration compared to the reference compound” value in series [1] (p.o.) is recorded as “slightly longer”. The “Time after which Cmax after p.o. administration is reached” value in series [1] (p.o.) was 30 min. The “Area% (UV 225 nm) of the Test Substance” value is 99.7% in series [2] (HCl (0.1M), 60° C., Initial); 99.6% in series [2] (HCl (0.1M), 60° C., t = 72 hours); 99.7% in series [2] (NaOH (0.1M), 60° C., Initial); 99.4% in series [2] (NaOH (0.1M), 60° C., t = 72 hours); 99.7% in series [2] (Water, 60° C., Initial); 99.6% in series [2] (Water, 60° C., t = 72 hours).
With `O=c1[nH]c2cc(C(F)(F)F)ccc2n1-c1cc(C(F)(F)F)ccc1O` [Reference Compound, 1,3-dihydro-1-[2-hydroxy-5-(trifluoromethyl)phenyl]-5-(trifluoromethyl)-2H-Benzimidazol-2-one], the half-life in series [1] (setting [4]) is 1.7 h; in series [1] (setting [6]) it was 2.5 h. Moreover, the Cmax in series [1] (po, p.o. 30 mg/kg) came to 10000 ng/mL. Moreover, the Tmax in series [1] (po, p.o. 30 mg/kg) is 3 h. In addition, the bioavailability in series [1] (setting [5]) is 145%. The compound further gave a Vd in series [1] of 1.1 L/kg. In addition, the “Time after which Cmax after p.o. administration is reached” value in series [1] (p.o.) came out at 180 min. Also, the “Area% (UV 225 nm) of the Test Substance” value turned out to be 98.4% in series [2] (HCl (0.1M), 60° C., Initial); 98.4% in series [2] (HCl (0.1M), 60° C., t = 52 hours); 98.4% in series [2] (NaOH (0.1M), 60° C., Initial); 0.0% in series [2] (NaOH (0.1M), 60° C., t = 2 hours); 98.4% in series [2] (Water, 60° C., Initial); 96.7% in series [2] (Water, 60° C., t = 28 hours). For the same compound, the “Stability in 0.1 M NaOH (in words)” value in series [2] (dissolved in 0.1 M NaOH) is on record as “degrades instantly”. Further, the “Stability in solution (in words)” value in series [2] (neutral, acidic and basic solution, 60° C.) is recorded as “unstable in neutral to basic solutions”. In addition, the “Effect on activity of myelinated and non-myelinated airway sensory fibers” value in series [3] is recorded as “inhibits the activity”.
